Results from patent US20090318366A1, “CHOLESTEROL LOWERING PROTEIN HYDROLYSATES” (DSM IP ASSETS B.V., priority 2006, published 2009).
Marks after values point to notes of the source that are not given here.

Columns and labels:
Fisher F344 rats [1] = test: Hypocholesterolemic effects of five small peptides in Fisher F344 rats, hypercholesterolemic rat model (Example 9); type: in vivo; settings: 100 mg/kg BW oral, 7 days, mean ± SD, n = 9-10; for HDL cholesterol (plasma): control 0.14 ± 0.08; for Total cholesterol (plasma): control 10.1 ± 2.2; for non HDL cholesterol (plasma): total minus HDL cholesterol, control 10.0 ± 2.2
Text: In short eighty male Fisher rats (F344) from Charles River (Sulzfeld, Germany), weighing 65-96 g were housed individually with free access to water and feed, with an alternating 12-hour light-dark cycle. The animals were fed a rodent atherogenic diet high in cholesterol and fat for the 2 weeks preceding the treatment. The macro-nutrient composition of the diet was as follows (g/100 g anhydrous mix): protein 20.8; fiber 4.2; fat 15; carbohydrate 48. The diet also contained 1.25 wt % cholesterol, 0.5 wt % sodium cholate and a standard vitamin and mineral mix, prepared according to rat nutritional requirements. The main fats consisted of cacoa butter (7.5 wt %) and soja oil (4.35 wt %). After 2 weeks of adaptation to the diet the rats were randomized according to body weight into […] of 10 animals. The […] were treated orally every morning for 7 days with either water (control group) or one of the following peptides: RPRPS, RGRPS, HPHPH, RPRP, KPKPS, at a dose of 100 mg/kg body weight (BW) while continuing the aetherogenic diet. There was no difference in feed consumption over the whole experiment. The day before the last administration, all animals were dosed orally in the evening and deprived of food overnight (14 hours) but allowed free access to water. At day 7 the fasted rats were treated again orally in the morning and after two hours the animals were sacrificed by withdrawing blood from the vena Cava under Isoflurane anesthesia. Blood was collected into tubes containing EDTA as an anticoagulant. Plasma was prepared from the blood by immediate centrifugation at 1600 g for 10 minutes at 4° C. Assays of plasma cholesterol and HDL-cholesterol (precipitation method) were determined enzymatically on a Hitachi 912 automatic analyzer (Roche Diagnostica, Switzerland). Non-HDL cholesterol was calculated by difference between total cholesterol and HDL cholesterol. One animal in the control group was excluded from the analysis due to hemolytic plasma which interfered with the measurements. All data are expressed as means±standard deviation (SD) for animals in each diet group, with n being the number of rats. Statistical significance of the mean differences between dietary groups was tested by one-way analysis of variance (ANOVA). If significant differences were found, the Dunnett's test for multiple comparison was used to compare each group to the control group. P values less than 0.05 were considered significant (Table 3).

[2] = Solubility of cholesterol in mixed micelles (intramicellar cholesterol after 24 h at 37° C., centrifugation and filtration); settings: 10 mg/ml test substance, 0.5 mM cholesterol, 6.6 mM taurocholate, 2.4 mM lecithin, pH 7.4, control 0.494
Method: The mixed micelles were prepared according to the method described by Nagaoka et al. (Biochemical and Biophysical Research Communications 281: 11-17 (2001)) by sonication of a 15 mM phosphate buffer saline (PBS) solution containing 6.6 mM taurocholate, 2.4 mM lecithin, 0.5 mM cholesterol and either 10 mg/ml of octapeptide (RPRPRPSF, MW1012) or 10 mg/ml soy protein (SUPRO 760, Solea Belgium) at pH 7.4. The lipids, phospholipids and cholesterol were dissolved in methanol and dried before adding the PBS buffer and the peptides or the soy protein at a final concentration of 10 mg/ml. The resulting micellar solution was kept at 37° C. for 24 hours and centrifuged at 1000×g for 10 min. In order to separate any precipitated cholesterol from the intramicellar cholesterol the solution was then filtered through a 0.22 μm MILLEX-GP filter (Millipore, Bedford, Mass., USA). The intramicellar concentration of cholesterol was then determined enzymatically using a cholesterol kit and a Hitachi 912 automatic analyzer from Roche Diagnostica, Switzerland.

Fisher F344 rats [3] = test: Hypocholesterolemic effects of peptides in Fisher F344 rats on atherogenic diet (Example 8); type: in vivo, rat; settings: 7 days; for HDL cholesterol (plasma) / Total cholesterol (plasma) / non HDL cholesterol (plasma): mean ± SD, n = 10; for HDL cholesterol (plasma): control 0.22 ± 0.12; for Total cholesterol (plasma): control 12.8 ± 3.1; for non HDL cholesterol (plasma): total minus HDL cholesterol, control 12.5 ± 3.1
Text: Forty male Fisher rats (F344) from Charles River (Sulzfeld, Germany), weighing 70-85 g were housed individually with free access to water and feed, with an alternating 12-hour light-dark cycle. The animals were fed a rodent atherogenic diet high in cholesterol and fat for the 2 weeks preceding the treatment. The macro-nutrient composition of the diet was as follows (g/100 g anhydrous mix): protein 20.8; fiber 4.2; fat 15; carbohydrate 48. The diet also contained 1.25 wt % cholesterol, 0.5 wt % sodium cholate and a standard vitamin and mineral mix, prepared according to rat nutritional requirements. The main fats consisted of cacoa butter (7.5 wt %) and soja oil (4.35 wt %). After 2 weeks of adaptation to the diet the rats were randomized according to body weight into four experimental groups of 10 animals. The four groups were treated orally every morning for 7 days with either water (control group) or octapeptide (RPRPRPSF) at two doses of 200 and 800 mg/kg body weight (BW) respectively or soy protein (SUPRO 760) at 800 mg/kg BW while continuing the aetherogenic diet. There was no difference in feed consumption over the whole experiment. The day before the last administration, all animals were dosed orally in the evening and deprived of food overnight (14 hours) but allowed free access to water. At day 7 the fasted rats were treated again orally in the morning and after two hours the animals were sacrificed by withdrawing blood from the vena Cava under Isoflurane anesthesia. Blood was collected into tubes containing EDTA as an anticoagulant. Plasma was prepared from the blood by immediate centrifugation at 1600 g for 10 minutes at 4° C. Assays of plasma cholesterol and HDL-cholesterol (precipitation method) were determined enzymatically on a Hitachi 912 automatic analyzer (Roche Diagnostica, Switzerland). Non-HDL cholesterol was calculated by difference between total cholesterol and HDL cholesterol. All data are expressed as means±standard deviation (SD) for animals in each diet group, with n being the number of rats. Statistical significance of the mean differences between dietary groups was tested by one-way analysis of variance (ANOVA). If significant differences were found, the Dunnett's test for multiple comparison was used to compare each group to the control group. P values less than 0.05 were considered significant (Table 2).

[4] = In vivo efficacy of peptide RPRPRPSF with and without beta-sitosterol (protocol of Nagaoka et al.); settings: in combination with beta-sitosterol
Text: Peptide RPRPRPSF is chemically synthesized and beta-sitosterol is obtained from Sigma. Both compounds, apart and in combination, are subjected to a testing protocol which is essentially similar to the in vivo testing protocol described by Nagaoka et al., BBRC 281 (2001) 11-17.

[5] = 200 and 800 mg/Kg BW oral, p < 0.05

Row | Substance | HDL cholesterol (plasma) (Fisher F344 rats [1]) | Total cholesterol (plasma) (Fisher F344 rats [1]) | non HDL cholesterol (plasma) (Fisher F344 rats [1]) | other results
1 | KPKPS | 0.29 ± 0.11^b mmol/L | 3.0 ± 1.0^b mmol/L | 2.7 ± 1.0^b mmol/L | 
2 | RPRP | 0.33 ± 0.11^b mmol/L | 2.9 ± 0.4^b mmol/L | 2.6 ± 0.4^b mmol/L | 
3 | RPRPRPSF [synthetic octapeptide R-P-R-P-R-P-S-F, MW1012] |  |  |  | Cholesterol content of the micellar solution ([2]; listed as Octapeptide): 0.153 mmol/L; Cholesterol content of the micellar solution ([2]; listed as octapeptide (RPRPRPSF)): drastically decreased; HDL cholesterol (plasma) (Fisher F344 rats [3]; 200 mg/Kg BW oral): 0.54 ± 0.20^b mmol/L; Total cholesterol (plasma) (Fisher F344 rats [3]; 200 mg/Kg BW oral): 4.1 ± 1.2^b mmol/L; non HDL cholesterol (plasma) (Fisher F344 rats [3]; 200 mg/Kg BW oral): 3.6 ± 1.2^b mmol/L; HDL cholesterol (plasma) (Fisher F344 rats [3]; 800 mg/Kg BW oral): 0.51 ± 0.17^b mmol/L; Total cholesterol (plasma) (Fisher F344 rats [3]; 800 mg/Kg BW oral): 3.4 ± 0.7^b mmol/L; non HDL cholesterol (plasma) (Fisher F344 rats [3]; 800 mg/Kg BW oral): 2.9 ± 0.7^b mmol/L; Non-HDL cholesterol (VLDL-cholesterol+LDL-cholesterol) levels as compared to the control group (Fisher F344 rats [3]; [5]): significantly lowered; Plasma total cholesterol levels as compared to the control group (Fisher F344 rats [3]; [5]): significantly lowered; Ratio of non-HDL cholesterol to HDL-cholesterol (Fisher F344 rats [3]; oral): positively affected; Plasma HDL-cholesterol compared to the control group (Fisher F344 rats [3]; oral, p < 0.05): significantly increased; Effect on cholesterol in vivo [4]: further enhanced
4 | RGRPS | 0.37 ± 0.14^b mmol/L | 3.2 ± 0.4^b mmol/L | 2.9 ± 0.4^b mmol/L | 
5 | HPHPH | 0.29 ± 0.13^b mmol/L | 3.4 ± 1.2^b mmol/L | 3.1 ± 1.3^b mmol/L | 
6 | RPRPS | 0.29 ± 0.06^b mmol/L | 3.6 ± 1.1^b mmol/L | 3.3 ± 1.2^b mmol/L | 
